Patent US20250333486A1, “Anti-HSP90 alpha antibody and uses thereof” (NATIONAL HEALTH RESEARCH INSTITUTES, priority 2021, published 2025)

Assays:
[1] = test system: ARPE-19 retinal pigmented epithelial cells; test: Retinal cell toxicity assay (MTS); format: cell-based, human; details: 72-h treatment, MTS; read-out: IC50 of cytotoxicity to ARPE-19 cells
Method: ARPE-19 cells were seeded onto 96-well plates at a density of 4000 cells per well, and then treated in triplicate with various concentrations of 17-AAG or anti-HSP90α antibody HH01 for 72 h. The 3-(4,5-dimethylthiazol-2-yl)-5-(3-carboxymethoxyphenyl)-2-(4-sulfophenyl)-2H-tetrazolium (MTS; Sigma-Aldrich) assay was employed and OD490 was measured to evaluate cell viability upon each treatment.

[2] = test system: PANC-1 plus EndoMT cell grafts; test: Therapeutic efficacy in desmoplastic humanized mouse PDAC transplant model; format: in vivo; details: hHSC-transplanted ASID mice; antibody 5 mg/kg x3, gemcitabine 100 mg/kg x2, IV
PANC-1 cells [3] = test: Transwell invasion assay, rHSP90α-induced PANC-1 invasion; format: cell-based, human; details: 15 μg/ml rHSP90α plus 15 μg/ml peptide
Method: In a 37° C. and 5% CO2 humidified incubator, cancer cells were subjected to serum starvation in 0.5% FBS-containing medium for 16 h, and then added […] After another 24 h, the treated cells were harvested as aliquots (1×10^5 cells per aliquot) in 0.5% FBS-containing culture medium, and then each aliquot was seeded into a top chamber of Transwell inserts pre-coated with 5-fold diluted Matrigel (BD Biosciences). Cells were allowed 16 h to invade through the Matrigel toward the bottom chambers containing culture medium plus 10% FBS. The filters of the Transwell inserts were then fixed and stained with Giemsa. Invasive cells on the lower side of filters were photographed using the Axiovert S100/AxioCam HR microscope system (Carl Zeiss, Oberkochen, Germany) and further quantified by the Image-Pro Plus software (Media Cybernetics, Inc., Silver Spring, MD, USA).

PANC-1 cells [4] = test: Cell spheroid-forming assay, rHSP90α-induced PANC-1 spheroids; format: cell-based, human; details: 15 μg/ml rHSP90α plus 15 μg/ml peptide
Method: One thousand cancer cells were seeded onto each well of 24-well plates pre-coated with a 4-mm thick layer of 0.5% agarose. After incubation 24 h with serum-free medium at 37° C. plus a 5% CO2 humidified atmosphere, cells were added with PBS or 15 μg/ml of rHSP90α in the absence or presence of 10 μg/ml of control IgG or the tested anti-HSP90α antibody. The incubation was kept for 10-14 days with supplements of some fresh serum-free medium every 3 days. Finally, the cell spheroids characterized by tight, non-adherent, and >100 μm in diameter were photographed and counted under an Olympus IX 71 inverted microscope (Center Valley, PA, USA). The spheroid formation % was calculated by the formula: (number of cell spheroids/1000)×100%.

eHSP90α—TLR4 ligation = details: Chua et al., Cells 2020; cited from earlier work

C=CCNC1=C2C[C@@H](C)C[C@H](OC)[C@H](O)[C@@H](C)/C=C(\C)[C@H](OC(N)=O)[C@@H](OC)/C=C\C=C(/C)C(=O)NC(=CC1=O)C2=O [Clone 17-AAG, 17-AAG, reference compound]
IC50 [1]: 0.0647 µM

Nc1ccn([C@@H]2O[C@H](CO)[C@@H](O)C2(F)F)c(=O)n1 [gemcitabine]
tumor growth curves [2]: significantly repressed tumors after the second administration of gemcitabine

peptide with a sequence of the a.a. 227-272 region of HSP90α: synthesized epitopes-containing peptide with the sequence of a.a. 227-272 of HSP90α (DKEVSDDEAEEKEDKEEEKEKEEKESEDKPEIEDVGSDEEEEKKDG; UniProt P07900 227-272, looked up, fragment)
rHSP90α-induced PANC-1 cell invasion (PANC-1 cells [3]): competitively suppressed
rHSP90α-induced PANC-1 spheroid formation (PANC-1 cells [4]): competitively suppressed

CCCCCCCCOC(=O)c1cc(O)c(O)c(O)c1 [Octyl gallate]
effect on EndoMT-derived CAFs and eHSP90α-induced macrophage M2-polarization and HSP90α expression (eHSP90α—TLR4 ligation): inhibitory effect
